Assay results: US7320989B2, “Pyridine, pyrimidine, quinoline, quinazoline, and naphthalene urotensin-II receptor antagonists” (Encysive Pharmaceuticals, Inc., priority 2003, dated 2008)

Molecular target: T1, human urotensin-II receptor (UTR cells) (Homo sapiens, UniProt Q9UKP6)
T1 construct: host or cells: 'UTR cells': TE-671 rhabdomyosarcoma cells (endogenous) or CHO cells stably expressing recombinant UTR
T1 sequence (Q9UKP6 1-389): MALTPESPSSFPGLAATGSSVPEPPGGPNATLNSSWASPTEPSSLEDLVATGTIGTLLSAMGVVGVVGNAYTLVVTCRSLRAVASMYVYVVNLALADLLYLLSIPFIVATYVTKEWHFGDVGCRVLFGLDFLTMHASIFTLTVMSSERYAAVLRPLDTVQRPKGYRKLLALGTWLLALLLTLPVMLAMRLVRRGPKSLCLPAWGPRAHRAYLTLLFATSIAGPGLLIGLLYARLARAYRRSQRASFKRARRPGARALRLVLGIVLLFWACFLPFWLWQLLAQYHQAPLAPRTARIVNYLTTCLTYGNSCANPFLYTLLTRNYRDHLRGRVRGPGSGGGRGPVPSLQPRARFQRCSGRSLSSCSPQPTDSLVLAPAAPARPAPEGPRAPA
Test: Inhibition of human urotensin-II-induced Ca2+ mobilization in UTR cells
Type: cell-based
Details: inhibition of signal induced by 1 nM human U-II, fluo-4AM, FlexStation
Description: 1) Inhibition of Human Urotensin-II-Induced Ca^2+ Mobilization in UTR Cells:
The function of urotensin-II was determined by measuring ligand-induced mobilization of intracellular Ca^2+ in a FlexStation scanning fluorometer (Molecular Devices). UTR cells were plated overnight at 50,000 cells/well in 96-well black/clear plates (Costar brand, Fisher 07-200-588). Cells were labeled with fluo-4AM dye (Molecular Probes, F-14201) in Hank's balanced salt solution (HBSS), 20 mM HEPES, 25 mM probenecid, pH 7.4, and then were washed with buffer. During the assay, cells were continuously monitored in the FlexStation and exposed to test compounds at a final concentration of 0.1% DMSO, followed by the addition of 1 nM human U-II. Fluorescence was read every 2 seconds for 2 minutes. The excitation and emission wavelengths used were 485 nm and 525 nm. Inhibition of the urotensin-II-induced signal was calculated using a nonlinear least square fitting program.

IC50: 6.5 µM
Compound: CN(C)CCOc1cc(Nc2ccnc3cc(C(F)(F)F)ccc23)ccc1Cl [Example 7, (4-chloro-3-(2-dimethylamino-ethoxy)-phenyl)-(7-trifluoromethyl-quinolin-4-yl)-amine]
